Measurements: article PMC11013284, “Chemoselective Synthesis and Anti-Kinetoplastidal Properties of 2,6-Diaryl-4H-tetrahydro-thiopyran-4-one S-Oxides: Their Interplay in a Cascade of Redox Reactions from Diarylideneacetones” (Molecules, 2024)
Where two headings read alike, the source gives them in different places.

Key:
[1] = system: Trypanosoma brucei brucei trypomastigotes, suramin-sensitive strain (Squib 427); assay: T. b. brucei growth/viability assay (resazurin); assay type: cell-based; conditions: 3 days
Experimental: After 3 days, parasite growth was assessed fluorimetrically following the addition of resazurin. After 24 h at 37 °C, fluorescence was measured (λex = 550 nm, λem = 590 nm). The results were expressed as a percentage reduction in parasite growth/viability compared to control wells, and a 50% inhibitory concentration (IC50) was calculated.

[2] = system: Trypanosoma cruzi (Tulahuen CL2 β-galactosidase) amastigotes in hMRC-5SV2 cells; assay: T. cruzi intracellular amastigote assay (β-galactosidase/CPRG); assay type: cell-based; conditions: intracellular amastigotes, 7 days; for IC50: read-out: IC50 T. cruzi intramacrophage amastigotes (converted)
Experimental: A nifurtimox-sensitive strain (Tulahuen CL2 β-galactosidase) in human lung fibroblast hMRC-5SV2 cells was incubated for 7 days in 96-well plates with five concentrations of compound (64, 16, 4, 1, and 0.25 μM). The parasitic burden was evaluated through the activity of the enzyme β-galactosidase on a specific chlorophenol red ß-D-galactopyranoside (CPRG) substrate. Live parasites converted the yellow-orange CPRG substrate into the red chromophore chlorophenol red, yielding a dark-red solution, which could be quantitatively measured at 540 nm after 4 h of incubation at 37 °C. The results were expressed as a percentage reduction in parasite growth/viability compared to control wells, and an IC50 was calculated.

[3] = system: L. infantum (MHOM/MA(BE)/67) amastigotes in primary peritoneal mouse macrophages; assay: L. infantum intramacrophage amastigote assay (microscopic burden); assay type: cell-based, Leishmania infantum; conditions: 5 days, mouse macrophages as host
Experimental: L. infantum (MHOM/MA(BE)/67 strain) amastigote were incubated for 5 days in 96-well plates with five concentrations of compound (64, 16, 4, 1, and 0.25 μM). Primary peritoneal mouse macrophages were used as host cells. Parasite burdens (i.e., the number of amastigotes per macrophage) were microscopically assessed. The results were expressed as a percentage reduction in parasite burden compared to untreated control wells, and an IC50 was calculated.

[4] = in vitro; conditions: human, CC50 hMRC-5 (cytotoxicity)
Experimental: (§1) The cytotoxicity of compounds was evaluated toward human diploid embryonic lung fibroblast hMRC-5SV2 cells, derived from fetal lung tissue and first described in 1970. hMRC-5SV2 cells were cultured in 96-well plates with five concentrations of the compound (64, 16, 4, 1, and 0.25 μM). After 3 days of incubation, the cell viability was assessed fluorimetrically after the addition of resazurin, and fluorescence was measured (λex = 550 nm, λem = 590 nm). The results were expressed as a percentage reduction in cell growth/viability compared to control wells, and a 50% cytotoxic concentration (CC50) was calculated. The reference cytotoxic drugs were tamoxifen or ivermectin. Additionally, toxicity toward mouse macrophages was qualitatively observed. Three concentrations were included (64, 16, and 4 µM), and the range of toxicity was ranked from the least toxic to the most toxic compound.

[5] = system: WT LV9 L. donovani intramacrophage amastigotes; assay: L. donovani intramacrophage amastigote assay; assay type: cell-based, Leishmania donovani; conditions: WT LV9, ± SD in Tables S5/S6, read-out: IC50 L. donovani intramacrophage amastigotes
[6] = system: human diploid embryonic lung fibroblast hMRC-5SV2 cells; assay: in vitro
Experimental: as §1

[7] = system: macrophages; conditions: bracketed value after the intramacrophage IC50 (Table S5); Table S6
[8] = Trypanosoma cruzi, TULAHUEN, 168 h
[9] = Leishmania infantum, Macrophage, 120 h

Row | Structure (SMILES) | IC50 [2] [µM] | IC50 [3] [µM] | IC50 [1] [µM] | CC50 [6] [µM] | other results
1 | COc1ccc(C2CC(=O)CC(c3ccc(OC)cc3)[S+]2[O-])cc1 (mixture of isomers) [3d, (±)-trans-2,6-Di-(p-anisyl)-4H-tetrahydrothiopyran-4-one 1-oxide] | 8.9 | ≥ 64 | – | – | IC50 ([1]; Trypanosoma brucei, 72 h): 3.1 µM; CC50 at 3 days [4]: 32.2 µM; IC50 [5]: 50.2 µM
2 | O=C1CC(c2ccccc2Cl)SC(c2ccccc2Cl)C1 (racemic) [2e] | > 64 | 32 | > 64 | > 64 | IC50 [5]: 14.2 ± 1.3 µM; observed macrophage death / lysis observed at [7]: > 150 µM
3 | COc1ccc(C2CC(=O)CC(c3ccc(OC)c(OC)c3)S2)cc1OC (racemic) [2j] | 7.3 | 32.5 | 8.1 | 9.3 | IC50 [5]: 19.3 ± 7.1 µM; observed macrophage death / lysis observed at [7]: > 150 µM
4 | O=C1CC(c2ccc(C(F)(F)F)cc2)SC(c2ccc(C(F)(F)F)cc2)C1 (racemic) [2r] | 2.5 | 32.5 | 0.5 | 10.2 | IC50 [5]: 68.6 ± 41.2 µM; observed macrophage death / lysis observed at [7]: 200 µM
5 | N#Cc1ccc(C2CC(=O)CC(c3ccc(C#N)cc3)S2)cc1 (racemic) [2t] | 42.5 | > 64 | 1.2 | > 64 | IC50 [5]: > 50 µM; observed macrophage death / lysis observed at [7]: > 100 µM
6 | CC(=O)Nc1ccc(C2CC(=O)CC(c3ccc(NC(C)=O)cc3)S2)cc1 (racemic) [2v] | > 64 | > 64 | > 64 | > 64 | IC50 [5]: > 50 µM; observed macrophage death / lysis observed at [7]: > 100 µM
7 | O=C1C[C@H](c2ccccn2)S[C@@H](c2ccccn2)C1 (racemic) [2w] | ≥ 64 | ≥ 64 | – | – | IC50 ([1]; Trypanosoma brucei, 72 h): 26.1 µM; IC50 [2, 8]: > 64 µM; IC50 [3, 9]: > 64 µM; CC50 at 3 days [4]: > 64 µM; CC50 ([6]; human, 3 days): ≥ 64 µM; IC50 ([5]; Leishmania donovani): > 100 µM
8 | O=C1CC(c2ccco2)SC(c2ccco2)C1 (racemic) [2z] | > 64 | > 64 | > 64 | > 64 | IC50 [5]: 3.2 ± 0.8 µM; observed macrophage death / lysis observed at [7]: > 150 µM
9 | COc1ccc([C@H]2CC(=O)C[C@H](c3ccc(OC)cc3)S2)cc1 (relative stereo) [2d] | ≥ 64 | ≥ 64 | ≥ 64 | – | IC50 ([1]; Trypanosoma brucei, 72 h): > 64 µM; IC50 [2, 8]: > 64 µM; IC50 [3, 9]: > 64 µM; CC50 at 3 days [4]: > 64 µM; CC50 ([6]; human, 3 days): ≥ 64 µM
10 | Cc1ccccc1/C=C/C(=O)/C=C/c1ccccc1C [1b] | 51.7 | 8.1 | > 64 | > 64 | IC50 [5]: 11.9 ± 1.1 µM; observed macrophage death / lysis observed at [7]: > 37.5 µM
11 | COc1ccc(/C=C/C(=O)/C=C/c2ccc(OC)cc2)cc1 [1d] | – | ≥ 64 | 1.24 | – | IC50 ([1]; Trypanosoma brucei, 72 h): 1.2 µM; IC50 [2, 8]: 10.7 µM; IC50 [3, 9]: > 64 µM; CC50 at 3 days [4]: > 64 µM; CC50 ([6]; human, 3 days): ≥ 64 µM
12 | COc1cc(/C=C/C(=O)/C=C/c2ccc(O)c(OC)c2)ccc1O [1i] | 1 | ≥ 32 | ≤ 0.3 | 1.1 | –
13 | C=CCOc1ccc(/C=C/C(=O)/C=C/c2ccc(OCC=C)c(OC)c2)cc1OC [1k] | 36.9 | > 64 | 6.8 | > 64 | –
14 | COc1ccc(O)c(/C=C/C(=O)/C=C/c2cc(OC)ccc2O)c1 [1l] | – | – | – | – | IC50 ([1]; Trypanosoma brucei, 72 h): ≤ 0.3 µM; IC50 [2, 8]: 1 µM; IC50 [3, 9]: ≥ 32 µM; CC50 at 3 days [4]: 1.9 µM
15 | O=C(/C=C/c1ccccc1)/C=C/c1ccc(C(F)(F)F)cc1 [1’b] | 33.8 | > 64 | 2.2 | > 64 | –
16 | CN(C)c1ccc(/C=C/C(=O)/C=C/c2ccc(C(F)(F)F)cc2)cc1 [1’c] | 31.7 | 8 | 9.2 | > 64 | –
17 | N#Cc1ccc(/C=C/C(=O)/C=C/c2ccccc2)cc1 [1’l] | 3.3 | 7 | ≤ 0.2 | 38.7 | –

Row | Structure (SMILES) | IC50 [2] [µM] | IC50 [3] [µM] | IC50 [1] [µM] | CC50 [6] [µM] | other results
18 | O=C(/C=C/c1ccccc1)/C=C/c1ccccn1 [1’n] | 0.5 | 1.3 | ≤ 0.2 | 1.5 | –
19 | O=C(/C=C/c1ccccc1)/C=C/c1ccncc1 [1’o] | ≤ 0.2 | 0.5 | ≤ 0.2 | 2 | –
20 | CN(C)c1ccc(/C=C/C(=O)/C=C/c2ccc(F)cn2)cc1 [1’q] | > 64 | 32.5 | 13.3 | 32.2 | –
21 | O=C(/C=C/c1ccccc1)/C=C/c1ncccn1 [1’r] | ≤ 0.2 | 0.4 | ≤ 0.2 | 1.6 | –
22 | O=C1C[C@@H](c2ccccc2Cl)S[C@@H](c2ccccc2Cl)C1 [2’e] | 35 | > 64 | 37.6 | > 64 | –
23 | O=C1C[C@@H](c2ccc(F)cc2)S[C@@H](c2ccc(F)cc2)C1 [2’g] | 1.4 | 2.1 | 2.1 | 6.4 | –
24 | COc1cc([C@@H]2CC(=O)C[C@H](c3cc(OC)c(C)cc3OC)S2)c(OC)cc1C [2’o] | 37.2 | 5.1 | 32.5 | > 64 | –
25 | COc1cc(Br)c(OC)c([C@@H]2CC(=O)C[C@H](c3cc(OC)cc(Br)c3OC)S2)c1 [2’q] | 17.1 | 8.6 | 32.2 | > 64 | –
26 | COc1ccc(C2CC(=O)CC(c3ccc(OC)cc3)S2)cc1 (stereo not shown) [2′d] | ≥ 64 | ≥ 64 | ≥ 64 | – | IC50 ([1]; Trypanosoma brucei, 72 h): > 64 µM; IC50 [2, 8]: > 64 µM; IC50 [3, 9]: > 64 µM; CC50 at 3 days [4]: > 64 µM; CC50 ([6]; human, 3 days): ≥ 64 µM; IC50 ([5]; Leishmania donovani): > 100 µM
27 | O=C1CC(c2ccccn2)SC(c2ccccn2)C1 (stereo not shown) [2′w] | ≥ 64 | ≥ 64 | 29.1 | – | IC50 ([1]; Trypanosoma brucei, 72 h): 29.6 µM; IC50 [2, 8]: > 64 µM; IC50 [3, 9]: > 64 µM; CC50 at 3 days [4]: > 64 µM; CC50 ([6]; human, 3 days): ≥ 64 µM; IC50 ([5]; Leishmania donovani): > 100 µM
28 | COc1ccc(C2CC(=O)CC(c3ccc(OC)cc3)[S+]2[O-])cc1 (stereo not drawn) [3′d, (anti)- and (syn)-cis-2,6-Di-(p-anisyl)-4H-tetrahydro-thiopyran-4-one 1-oxides] | ≥ 64 | ≥ 64 | 2.3 | – | IC50 T. cruzi intramacrophage amastigotes [2]: inactive; IC50 L. infantum intramacrophage amastigotes [3]: inactive; CC50 ([6]; human, 3 days): ≥ 64 µM; IC50 [5]: > 100 µM
29 | CC1CS(=O)(=O)CCN1/N=C/c1ccc([N+](=O)[O-])o1 (stereo not shown) [Nifurtimox, nifurtimox, reference compound] | – | – | – | – | IC50 [2, 8]: 0.845 ± 0.2 µM
30 | Cc1ccc(C(=O)Nc2ccc(S(=O)(=O)O)c3cc(S(=O)(=O)O)cc(S(=O)(=O)O)c23)cc1NC(=O)c1cccc(NC(=O)Nc2cccc(C(=O)Nc3cc(C(=O)Nc4ccc(S(=O)(=O)O)c5cc(S(=O)(=O)O)cc(S(=O)(=O)O)c45)ccc3C)c2)c1 [Suramin, suramin, reference compound] | – | – | 0.03 | – | –
31 | CC/C(=C(\c1ccccc1)c1ccc(OCCN(C)C)cc1)c1ccccc1 [Tamoxifen, tamoxifen, reference compound] | – | – | – | – | CC50 at 3 days [4]: 9.12 µM
32 | O=C(Cn1ccnc1[N+](=O)[O-])NCc1ccccc1 [benznidazole, reference compound] | – | – | – | – | IC50 [2, 8]: 1.93 µM
33 | CC[C@H](C)[C@H]1O[C@]2(CC[C@@H]1C)C[C@@H]1C[C@@H](C/C=C(\C)[C@@H](O[C@H]3C[C@H](OC)[C@@H](O[C@H]4C[C@H](OC)[C@@H](O)[C@H](C)O4)[C@H](C)O3)[C@@H](C)/C=C/C=C3\CO[C@@H]4[C@H](O)C(C)=C[C@@H](C(=O)O1)[C@]34O)O2 [ivermectine, ivermectin, reference compound] | – | – | – | – | CC50 ([6]; read-out: CC50 hMRC-5 (cytotoxicity), human hMRC-5SV2 fibroblasts, 3 days): 3.5 µM
34 | CCCCCCCCCCCCCCCCOP(=O)([O-])OCC[N+](C)(C)C [miltefosine, Hexadecyl-Phosphoryl-Choline, reference compound] | – | – | – | – | IC50 ([5]; Leishmania donovani): 19.1 ± 0.1 µM
